Results reported in ChEMBL document CHEMBL1697731, “Cheminformatics analysis of assertions mined from literature that describe drug-induced liver injury in different species” (Chem Res Toxicol, 2010).

Assays:
Hepatotoxicity [1] = assay: Literature-mined compound from Fourches et al multi-species drug-induced liver injury (DILI) dataset, effect in non-rodents
Hepatotoxicity [2] = assay: Literature-mined compound from Fourches et al multi-species drug-induced liver injury (DILI) dataset, effect in rodents; details: rodentia
Hepatotoxicity [3] = assay: Literature-mined compound from Fourches et al multi-species drug-induced liver injury (DILI) dataset, effect in humans; details: human

Row | Structure (SMILES) | Hepatotoxicity (Hepatotoxicity [1]) | Hepatotoxicity (Hepatotoxicity [2]) | Hepatotoxicity (Hepatotoxicity [3]) | Hepatotoxicity (Hepatotoxicity [1]; Liver) | Hepatotoxicity (Hepatotoxicity [2]; Liver) | Hepatotoxicity (Hepatotoxicity [3]; Liver)
1 | COc1ccc(C(=O)c2ccccc2)c(O)c1 [OXYBENZONE] | no drug-induced liver injury reported | drug-induced liver injury reported | no drug-induced liver injury reported | – | – | –
2 | COc1ccc2c3c1O[C@H]1C(=O)CC[C@@]4(O)[C@@H](C2)N(C)CC[C@]314.Cl [OXYCODONE HYDROCHLORIDE] | – | – | – | no drug-induced liver injury reported | drug-induced liver injury reported | no drug-induced liver injury reported
3 | C[C@]12C/C(=C/O)C(=O)C[C@@H]1CC[C@@H]1[C@@H]2CC[C@@]2(C)[C@H]1CC[C@]2(C)O [OXYMETHOLONE] | no drug-induced liver injury reported | no drug-induced liver injury reported | drug-induced liver injury reported | – | – | –
4 | CN1CC[C@]23c4c5ccc(O)c4O[C@H]2C(=O)CC[C@@]3(O)[C@H]1C5 [OXYMORPHONE] | no drug-induced liver injury reported | no drug-induced liver injury reported | drug-induced liver injury reported | – | – | –
5 | CCCCC1C(=O)N(c2ccccc2)N(c2ccc(O)cc2)C1=O (configuration not stated) [OXYPHENBUTAZONE ANHYDROUS] | no drug-induced liver injury reported | drug-induced liver injury reported | no drug-induced liver injury reported | – | – | –
6 | O=C1Nc2ccccc2C1(c1ccc(O)cc1)c1ccc(O)cc1 [OXYPHENISATINE] | no drug-induced liver injury reported | no drug-induced liver injury reported | drug-induced liver injury reported | – | – | –
7 | O=c1[nH]c(=O)c2c[nH]nc2[nH]1 [OXYPURINOL] | no drug-induced liver injury reported | drug-induced liver injury reported | no drug-induced liver injury reported | – | – | –
8 | CN(C)[C@@H]1C(O)=C(C(N)=O)C(=O)[C@@]2(O)C(O)=C3C(=O)c4c(O)cccc4[C@@](C)(O)[C@H]3[C@H](O)[C@@H]12 [OXYTETRACYCLINE] | no drug-induced liver injury reported | drug-induced liver injury reported | no drug-induced liver injury reported | – | – | –
9 | O=C(O)/C=C/c1ccc(Cn2ccnc2)cc1 [OZAGREL] | no drug-induced liver injury reported | drug-induced liver injury reported | no drug-induced liver injury reported | – | – | –
10 | CC(=O)O[C@H]1C(=O)[C@@]2(C)[C@H]([C@H](OC(=O)c3ccccc3)[C@]3(O)C[C@H](OC(=O)[C@H](O)[C@@H](NC(=O)c4ccccc4)c4ccccc4)C(C)=C1C3(C)C)[C@]1(OC(C)=O)CO[C@@H]1C[C@@H]2O [PACLITAXEL] | – | – | – | no drug-induced liver injury reported | drug-induced liver injury reported | drug-induced liver injury reported
11 | COc1ccnc(C[S+]([O-])c2nc3ccc(OC(F)F)cc3[nH]2)c1OC (configuration not stated) [PANTOPRAZOLE] | no drug-induced liver injury reported | no drug-induced liver injury reported | drug-induced liver injury reported | – | – | –
12 | NC[C@@H]1O[C@H](O[C@H]2[C@@H](O)[C@H](O[C@@H]3[C@@H](O)[C@H](N)C[C@H](N)[C@H]3O[C@H]3O[C@H](CO)[C@@H](O)[C@H](O)[C@H]3N)O[C@@H]2CO)[C@H](N)[C@@H](O)[C@@H]1O [PAROMOMYCIN] | no drug-induced liver injury reported | drug-induced liver injury reported | no drug-induced liver injury reported | – | – | –
13 | Fc1ccc([C@@H]2CCNC[C@H]2COc2ccc3c(c2)OCO3)cc1 [PAROXETINE] | no drug-induced liver injury reported | no drug-induced liver injury reported | drug-induced liver injury reported | – | – | –
14 | NC1=NC(=O)C(c2ccccc2)O1 (configuration not stated) [PEMOLINE] | no drug-induced liver injury reported | no drug-induced liver injury reported | drug-induced liver injury reported | – | – | –
